Like-named read-outs stand apart in the source and are kept apart here.
Assays:
[1] = tested on: T1, Full-length human STING; format: cell-based
T1 construct: Full-length human STING (Gene ID 340061); expressed in transfected cells; host or cells: HEK293T
Procedure: Functional Assay III (HEX WT agonist assay): Activation of STING in cells may be determined using a luciferase reporter assay in human embryonic kidney cells (HEK293T) co-transfected with plasmids expressing STING and the enzyme firefly luciferase driven by the interferon stimulated response element promoter (pISRE-Luc) (Agilent Technologies). […] Transfections were prepared using a cell suspension with Fugene® 6 following the manufacturer's instructions (3:1 Fugene®:DNA). […] of the transfection suspension was dispensed into wells of a 384-well plate containing 250 nL of a compound of Formula (I). […] Control wells expected to generate maximal activation of STING were cotransfected with a cGAS expression plasmid. Plates were sealed and incubated for 24 hours at 37° C. The expression of firefly luciferase was processed using Steady-Glo® luciferase assay system (Promega) and was analyzed using a standard laboratory luminescence plate reader. Data was normalized to luminescence response in the presence of cGAS, was plotted as a function of compound concentration, and fit using a standard model of receptor activation to derive the pEC50.

[2] = tested on: C-terminal Domain (CTD) of human STING; details: 500 pM STING, 100 nM Alexa488 probe, 15 min at room temperature
[3] = HEK293T co-transfected with STING and pISRE-Luc, 24 hours at 37° C., normalized to cGAS response

## CCn1nc(C)cc1C(=O)Nc1nc2cc(C(N)=O)ccc2n1C [Example 1, 2-(1-ethyl-3-methyl-1H-pyrazole-5-carboxamido)-1-methyl-1H-benzo[d]imidazole-5-carboxamide]
[1]; [3]
  HEK assay (pEC50): 4.4
[2]
  FRET assay (pIC50): 4.4

## C=CCn1c(NC(=O)c2cc(C)nn2CC)nc2cc(C(N)=O)ccc21 [Example 2, 1-allyl-2-(1-ethyl-3-methyl-1H-pyrazole-5-carboxamido)-1H-benzo[d]imidazole-5-carboxamide]
[1]; [3]
  HEK assay (pEC50): 4.5
[2]
  FRET assay (pIC50): 4.6

## CCCn1c(NC(=O)c2cc(C)nn2CC)nc2cc(C(N)=O)cc(OC)c21 [Example 3, 2-(1-ethyl-3-methyl-1H-pyrazole-5-carboxamido)-7-methoxy-1-propyl-1H-benzo[d]imidazole-5-carboxamide]
[1]; [3]
  HEK assay (pEC50): 6
[2]
  FRET assay (pIC50): 5.5

## C=CCn1c(NC(=O)c2cc(C)nn2CC)nc2cc(C(N)=O)cc(OCCCO)c21 [Example 4, 1-Allyl-2-(1-ethyl-3-methyl-1H-pyrazole-5-carboxamido)-7-(3-hydroxypropoxy)-1H-benzoylimidazole-5-carboxamide]
[1]; [3]
  HEK assay (pEC50): 4.5
[2]
  FRET assay (pIC50): 4.9

## CCn1nc(C)cc1C(=O)Nc1nc2cc(C(N)=O)cc(OC)c2n1CCCN1CCOCC1 [Example 9, 2-(1-ethyl-3-methyl-1H-pyrazole-5-carboxamido)-7-methoxy-1-(3-morpholinopropyl)-1H-benzo[d]imidazole-5-carboxamide]
[1]; [3]
  HEK assay (pEC50): 5.1
[2]
  FRET assay (pIC50): 5.1

## CCCn1c(NC(=O)c2cc(C)nn2CC)nc2cc(C(N)=O)cc(OCCCO)c21 [Example 13, 2-(1-ethyl-3-methyl-1H-pyrazole-5-carboxamido)-7-(3-hydroxypropoxy)-1-propyl-1H-benzo-[d]imidazole-5-carboxamide]
[1]; [3]
  HEK assay (pEC50): 5.4

## C=CCn1c(NC(=O)c2cc(C)nn2CC)nc2cc(C(N)=O)cc(OC)c21 [Example 14, 1-allyl-2-(1-ethyl-3-methyl-1H-pyrazole-5-carboxamido)-7-methoxy-1H-benzo[d]imidazole-5-carboxamide]
[1]; [3]
  HEK assay (pEC50): 5.6
[2]
  FRET assay (pIC50): <3.9

## CCn1nc(C)cc1C(=O)Nc1nc2cc(C(N)=O)cc(OC)c2n1CCCCNC(=O)OC(C)(C)C [Example 17, tert-butyl (4-(5-carbamoyl-2-(1-ethyl-3-methyl-1H-pyrazole-5-carboxamido)-7-methoxy-1H-benzo[d]imidazol-1-yl)butyl)carbamate]
[1]; [3]
  HEK assay (pEC50): 6.1

## CCCCn1c(NC(=O)c2cc(C)nn2CC)nc2cc(C(N)=O)cc(OC)c21 [Example 24, 1-butyl-2-(1-ethyl-3-methyl-1H-pyrazole-5-carboxamido)-7-methoxy-1H-benzo[d]imidazole-5-carboxamide]
[1]; [3]
  HEK assay (pEC50): 6.0

## CCn1nc(C)cc1C(=O)Nc1nc2cc(C(N)=O)cc(OC)c2n1CCC(C)C [Example 27, (1-ethyl-3-methyl-1H-pyrazole-5-carboxamido)-1-isopentyl-7-methoxy-1H-benzo[d]imidazole-5-carboxamide]
[1]; [3]
  HEK assay (pEC50): 5.5

## CCCn1c(NC(=O)c2cc(C)nn2CC)nc2c(OC)c(C(N)=O)ccc21 [Example 30, 2-(1-ethyl-3-methyl-1H-pyrazole-5-carboxamido)-4-methoxy-1-propyl-1H-benzo[d]imidazole-5-carboxamide]
[2]
  FRET assay (pIC50): 5.0

## CCn1nc(C)cc1C(=O)Nc1nc2cc(C(N)=O)cc(OC(C)C)c2n1CCCN1CCOCC1 [Example 37, 2-(1-ethyl-3-methyl-1H-pyrazole-5-carboxamido)-7-isopropoxy-1-(3-morpholinopropyl)-1H-benzo[d]imidazole-5-carboxamide]
[2]
  FRET assay (pIC50): 5.5

## CCCn1c(NC(=O)c2cc(C)nn2CC)nc2cc(C(N)=O)cc(CN3CCOCC3)c21 [Example 41, 2-(1-ethyl-3-methyl-1H-pyrazole-5-carboxamido)-7-(morpholinomethyl)-1-propyl-1H-benzoylimidazole-5-carboxamide]
[2]
  FRET assay (pIC50): 5.4

## CCn1nc(C)cc1C(=O)Nc1nc2cc(C(N)=O)cc(OC)c2n1CCCc1cccnc1 [Example 50, 2-(1-ethyl-3-methyl-1H-pyrazole-5-carboxamido)-7-methoxy-1-(3-(pyridin-3-yl)propyl)-1H-benzoylimidazole-5-carboxamide]
[2]
  FRET assay (pIC50): 5.3

## CCn1nc(C)cc1C(=O)Nc1nc2cc(C(N)=O)cc(OC)c2n1CCCNC(=O)OCc1ccccc1 [Example 53, benzyl (3-(5-carbamoyl-2-(1-ethyl-3-methyl-1H-pyrazole-5-carboxamido)-7-methoxy-1H-benzo[d]imidazol-1-yl)propyl)carbamate]
[1]
  HEK assay (pEC50): 6.2

## CCCn1c(NC(=O)c2cc(CC)nn2CC)nc2cc(C(N)=O)cc(OC)c21 [Example 57, 2-(1,3-diethyl-1H-pyrazole-5-carboxamido)-7-methoxy-1-propyl-1H-benzo[d]imidazole-5-carboxamide]
[1]; [3]
  HEK assay (pEC50): 5.5

Reference: patent US10975287B2, “Heterocyclic amides useful as protein modulators” (GlaxoSmithKline Intellectual Property Development Limited, priority 2017, dated 2021)
